Active and inactive are the calls of the source. The calls are words filed in the database; no cut-off is given here.
What was measured:
[1] = Cytotoxicity against human 1BR3 cells assessed as cell viability at 100 uM after 24 hrs by MTT assay; format: cell-based; details: read-out: Activity
[2] = Cytotoxicity against human 1BR3 cells assessed as cell viability at 1 uM after 24 hrs by MTT assay; format: cell-based; details: read-out: Activity
[3] = Cytotoxicity against human 1BR3 cells assessed as cell viability at 20 uM after 24 hrs by MTT assay; format: cell-based; details: read-out: Activity
[4] = system: Radical scavenging activity; test: Antioxidant activity assessed as DPPH radical scavenging activity at 100 uM after 20 mins by spectrophotometric analysis; format: functional
[5] = system: Rattus norvegicus; test: Antiinflammatory activity in Fischer-344 rat assessed as inhibition of carrageenan-induced paw edema at 0.01 mmol/kg, ip after 3.5 hrs relative to control; format: functional; details: Fischer-344, ip
[6] = Cytotoxicity against human 1BR3 cells assessed as cell viability at 50 uM after 24 hrs by MTT assay; format: cell-based; details: read-out: Activity
[7] = Inhibition of soybean LOX using sodium linoleate as substrate by spectrophotometric analysis; design: species or system Glycine max
[8] = system: Rattus norvegicus; test: Toxicity against Fischer-344 rat up to 0.1 mmol/kg, ip; format: organism-based; details: in vivo
[9] = Cytotoxicity against human 1BR3 cells assessed as cell viability at 10 uM after 24 hrs by MTT assay; format: cell-based; details: read-out: Activity
[10] = Antioxidant activity assessed as inhibition of AAPH-induced linoleic acid lipid peroxidation at 100 uM by spectrophotometric analysis; format: functional
[11] = system: Radical scavenging activity; test: Antioxidant activity assessed as DPPH radical scavenging activity at 100 uM after 60 mins by spectrophotometric analysis; format: functional
[12] = system: Glycine max; test: Inhibition of soybean LOX using sodium linoleate as substrate at 100 uM by spectrophotometric analysis

| SMILES | viability at 24 h, 100 µM [1] [%] | viability at 24 h, 1 µM [2] [%] | viability at 24 h, 20 µM [3] [%] | Activity [4] | inhibition in vivo at 10 µmol/kg [5] [%] | viability at 24 h, 50 µM [6] [%] | IC50 ([7]; read-out: IC50) [µM] | Activity [8] | viability at 24 h, 10 µM [9] [%] | inhibition [10] | Activity [11] | inhibition [12] [%] | IC50 [7] |
| --- | --- | --- | --- | --- | --- | --- | --- | --- | --- | --- | --- | --- | --- |
| COc1c2occc2c(-c2ccc(/C=C/C(=O)OC(C)(C)C)cc2)c2ccc(=O)oc12 | 46.3 | 98.8 | 67.9 | 15% | 26.2 | 66.3 | 7.5 | Non-toxic | 74.1 | 72% | 18% | – | – |
| Cc1oc2c(C)c3oc(=O)cc(C)c3cc2c1-c1ccc(/C=C/C(=O)O)cc1 | – | – | – | inactive | – | – | – | Non-toxic | – | 84% | inactive | 13 | – |
| O=c1ccc2c(Br)c3ccoc3c(O)c2o1 | – | – | – | 33% | – | – | 50 | – | – | 83% | 43% | – | – |
| Cc1cc2cc3c(C)cc(=O)oc3c(C)c2o1 [TRIOXSALEN] | 95.2 | 107 | 95.2 | inactive | – | 92.2 | – | – | 96.7 | inactive | inactive | 40 | – |
| COc1c2ccoc2c(Br)c2oc(=O)ccc12 | – | – | – | 7% | – | – | 90 | – | – | 83% | 7% | – | – |
| COc1c2occc2c(-c2ccc(/C=C/C(=O)O)cc2)c2ccc(=O)oc12 | – | – | – | 41% | – | – | 62 | Non-toxic | – | 12% | 44% | – | – |
| COc1c2occc2c(/C=C/C(=O)OCc2cccc(Oc3ccccc3)c2)c2ccc(=O)oc12 | – | – | – | 7% | – | – | 55 | Non-toxic | – | 89% | 9% | – | – |
| COc1c2ccoc2cc2oc(=O)ccc12 [BERGAPTEN] | 88.9 | 105 | 99.4 | 14% | – | 91.7 | – | – | 102 | 49% | 14% | – | Not Active |
| Cc1oc2c(C)c3oc(=O)cc(C)c3cc2c1-c1ccc(/C=C/C(=O)OC(C)(C)C)cc1 | – | – | – | inactive | – | – | – | Non-toxic | – | 41% | inactive | 33 | – |
| CC(=O)c1c(C)oc2c(C)c3oc(=O)cc(C)c3cc12 | – | – | – | 14% | – | – | 79 | – | – | 67% | 14% | – | – |
| Cc1c(C)c2c(c(C)c1O)CCC(C)(C(=O)O)O2 (stereo unspecified) | – | – | – | – | – | – | – | – | – | 63% | – | – | – |
| Cc1oc2c(C)c3oc(=O)cc(C)c3cc2c1-c1ccc(C(=O)O)cc1 | – | – | – | inactive | – | – | – | Non-toxic | – | 80% | inactive | – | Not Active |
| CC(Cc1ccc(O)c(O)c1)C(C)Cc1ccc(O)c(O)c1 (stereo unspecified) | – | – | – | 81% | – | – | – | – | – | – | 83% | – | – |
| COc1c2ccoc2c(/C=C/C(=O)O)c2oc(=O)ccc12 | – | – | – | 14% | – | – | 83 | Non-toxic | – | 55% | 14% | – | – |
| CCCCOC(=O)/C=C/c1c2ccoc2c(OC)c2oc(=O)ccc12 | 90.3 | 96.7 | 99.6 | 5% | 57 | 98.9 | 6 | Non-toxic | 99.3 | 79% | 7% | – | – |
| COc1ccc2c(c1)c(CC(=O)O)c(C)n2C(=O)c1ccc(Cl)cc1 [INDOMETHACIN] | – | – | – | – | 47 | – | – | Non-toxic | – | – | – | – | – |
| COc1c2ccoc2c(-c2ccc(/C=C/C(=O)O)cc2)c2oc(=O)ccc12 | 13.3 | 65.6 | 24.7 | 22% | – | 18.5 | 24 | Non-toxic | 55.6 | 55% | 28% | – | – |
| COc1c2occc2c(C(C)=O)c2ccc(=O)oc12 | – | – | – | 8% | – | – | 100 | – | – | 85% | 8% | – | – |

| SMILES | viability at 24 h, 100 µM [1] [%] | viability at 24 h, 1 µM [2] [%] | viability at 24 h, 20 µM [3] [%] | Activity [4] | inhibition in vivo at 10 µmol/kg [5] [%] | viability at 24 h, 50 µM [6] [%] | IC50 ([7]; read-out: IC50) [µM] | Activity [8] | viability at 24 h, 10 µM [9] [%] | inhibition [10] | Activity [11] | inhibition [12] [%] | IC50 [7] |
| --- | --- | --- | --- | --- | --- | --- | --- | --- | --- | --- | --- | --- | --- |
| O=c1ccc2cc3ccoc3c(O)c2o1 [XANTHOTOXOL] | – | – | – | 25% | – | – | 89 | – | – | 5% | 22% | – | – |
| CCOC(=O)/C=C/c1c(C)oc2c(C)c3oc(=O)cc(C)c3cc12 | – | – | – | 8% | – | – | – | Non-toxic | – | 77% | 60% | – | Not Active |
| COc1c2ccoc2c(-c2ccc(/C=C/C(=O)OC(C)(C)C)cc2)c2oc(=O)ccc12 | – | – | – | 8% | – | – | 100 | Non-toxic | – | 77% | 12% | – | – |
| COc1c2occc2c(-c2ccc(C(=O)O)cc2)c2ccc(=O)oc12 | – | – | – | 11% | – | – | – | Non-toxic | – | 100% | 15% | – | Not Active |
| COc1c2ccoc2c(/C=C/C(=O)OC(C)(C)C)c2oc(=O)ccc12 | – | – | – | inactive | – | – | – | Non-toxic | – | 79% | inactive | – | Not Active |
| CCOC(=O)/C=C/c1c2ccoc2c(OC)c2oc(=O)ccc12 | – | – | – | 5% | – | – | 75 | Non-toxic | – | 83% | 6% | – | – |
| COc1c2occc2c(Br)c2ccc(=O)oc12 | – | – | – | 8% | – | – | 40 | – | – | 62% | 8% | – | – |
| COc1c2occc2c(/C=C/C(=O)OC(C)(C)C)c2ccc(=O)oc12 | – | – | – | 3% | – | – | – | Non-toxic | – | 89% | 3% | – | Not Active |
| O=c1ccc2c(O)c3ccoc3cc2o1 [BERGAPTOL] | – | – | – | 34% | – | – | 41.5 | – | – | 95% | 36% | – | – |
| Cc1oc2c(C)c3oc(=O)cc(C)c3cc2c1/C=C/C(=O)OC(C)(C)C | 22.2 | 67.9 | 37 | 11% | 46 | 34.6 | 9.4 | Non-toxic | 55.6 | 80% | 11% | – | – |
| Cc1oc2c(C)c3oc(=O)cc(C)c3cc2c1Br | – | – | – | inactive | – | – | – | – | – | 35% | 100% | – | Not Active |
| COc1c2occc2cc2ccc(=O)oc12 [METHOXSALEN] | 89.6 | 101 | 96.7 | 16% | – | 92 | 50 | – | 98.1 | 5% | 16% | – | – |
| O=c1ccc2c(O)c3ccoc3c(Br)c2o1 | 91 | 97 | 95.2 | 20% | – | 91.6 | 30.5 | – | 92.8 | 81% | 56% | – | – |
| CCOC(=O)/C=C/c1c2occc2c(OC)c2ccc(=O)oc12 | – | – | – | inactive | – | – | – | Non-toxic | – | 8% | inactive | – | Not Active |
| Cc1oc2c(C)c3oc(=O)cc(C)c3cc2c1/C=C/C(=O)O | – | – | – | 11% | – | – | – | Non-toxic | – | 73% | 11% | 9 | – |
| COc1c2ccoc2c(-c2ccc(C(=O)O)cc2)c2oc(=O)ccc12 | – | – | – | 22% | – | – | 60 | Non-toxic | – | 66% | 19% | – | – |
| COc1c2occc2c(/C=C/C(=O)O)c2ccc(=O)oc12 | – | – | – | 7% | – | – | 50 | Non-toxic | – | 62% | 7% | – | – |
